Results: BindingDB's records for doi:10.1016/s0028-3908(05)80009-7 (Universit&Eacute, 1994)
pKi: −log10 of the molar value. Where a SMILES comes first, the peptide text is derived from it. [ ]: non-standard residue; d: D form. ξ: configuration not given here. Ile(3ξ) = CCC(C)[C@H](N)C(=O)O

Target: T1, Pituitary adenylate cyclase-activating polypeptide (Rattus norvegicus, UniProt P13589)
T1 sequence (P13589 whole entry): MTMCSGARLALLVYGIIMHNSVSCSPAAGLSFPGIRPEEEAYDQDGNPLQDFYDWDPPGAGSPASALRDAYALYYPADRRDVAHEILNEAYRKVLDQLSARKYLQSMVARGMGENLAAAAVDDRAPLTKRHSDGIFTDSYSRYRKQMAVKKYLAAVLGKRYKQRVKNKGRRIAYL

| Structure (SMILES) | pKi |
| --- | --- |
| CC[C@H](C)[C@H](NC(=O)CNC(=O)[C@H](CC(=O)O)NC(=O)[C@H](C)NC(=O)[C@@H](N)Cc1cnc[nH]1)C(=O)N[C@@H](Cc1ccccc1)C(=O)N[C@H](C(=O)N[C@@H](CC(=O)O)C(=O)N[C@@H](CO)C(=O)N[C@@H](Cc1ccc(O)cc1)C(=O)N[C@@H](CO)C(=O)N[C@@H](CCCNC(=N)N)C(=O)N[C@@H](Cc1ccc(O)cc1)C(=O)N[C@@H](CCCNC(=N)N)C(=O)N[C@@H](CCCCN)C(=O)N[C@@H](CCC(N)=O)C(=O)N[C@@H](CCSC)C(=O)N[C@@H](C)C(=O)N[C@H](C(=O)N[C@@H](CCCCN)C(=O)N[C@@H](CCCCN)C(=O)N[C@@H](Cc1ccc(O)cc1)C(=O)N[C@@H](CC(C)C)C(=O)N[C@@H](C)C(=O)N[C@@H](C)C(=O)N[C@H](C(=O)N[C@@H](CC(C)C)C(=O)NCC(=O)N[C@@H](CCCCN)C(=O)N[C@@H](CCCNC(=N)N)C(=O)N[C@@H](Cc1ccc(O)cc1)C(=O)N[C@@H](CCCCN)C(=O)N[C@@H](CCC(N)=O)C(=O)N[C@@H](CCCNC(=N)N)C(=O)N[C@H](C(=O)N[C@@H](CCCCN)C(=O)N[C@@H](CC(N)=O)C(=O)N[C@@H](CCCCN)C(N)=O)C(C)C)C(C)C)C(C)C)[C@@H](C)O | 9.30 |
| CSCC[C@H](NC(=O)[C@H](CCC(N)=O)NC(=O)[C@H](CCCCN)NC(=O)[C@H](CCCNC(=N)N)NC(=O)[C@H](Cc1ccc(O)cc1)NC(=O)[C@H](CCCNC(=N)N)NC(=O)[C@H](CO)NC(=O)[C@H](Cc1ccc(O)cc1)NC(=O)[C@H](CO)NC(=O)[C@H](CC(=O)O)NC(=O)[C@@H](NC(=O)[C@@H](N)Cc1ccccc1)[C@@H](C)O)C(=O)N[C@@H](C)C(=O)N[C@H](C(=O)N[C@@H](CCCCN)C(=O)N[C@@H](CCCCN)C(=O)N[C@@H](Cc1ccc(O)cc1)C(=O)N[C@@H](CC(C)C)C(=O)N[C@@H](C)C(=O)N[C@@H](C)C(=O)N[C@H](C(=O)N[C@@H](CC(C)C)C(=O)NCC(=O)N[C@@H](CCCCN)C(=O)N[C@@H](CCCNC(=N)N)C(=O)N[C@@H](Cc1ccc(O)cc1)C(=O)N[C@@H](CCCCN)C(=O)N[C@@H](CCC(N)=O)C(=O)N[C@@H](CCCNC(=N)N)C(=O)N[C@H](C(=O)N[C@@H](CCCCN)C(=O)N[C@@H](CC(N)=O)C(=O)N[C@@H](CCCCN)C(N)=O)C(C)C)C(C)C)C(C)C | 8.70 |
| [C][C][C]([C])[C@H]([N]C(=O)[C][N]C(=O)[C@H]([C][C]C([O])=O)[N]C(=O)[C@@H]([N])[C][O])C(=O)[N][C@@H]([C]c1ccccc1)C(=O)[N][C@H](C(=O)[N][C@@H]([C]C([O])=O)C(=O)[N][C@@H]([C][O])C(=O)[N][C@@H]([C]c1ccc([O])cc1)C(=O)[N][C@@H]([C][O])C(=O)[N][C@@H]([C][C][C]N=C([N])[N])C(=O)[N][C@@H]([C]c1ccc([O])cc1)C(=O)[N][C@@H]([C][C][C]N=C([N])[N])C(=O)[N][C@@H]([C][C][C][C][N])C(=O)[N][C@@H]([C][C]C([N])=O)C(=O)[N][C@@H]([C][C]S[C])C(=O)[N][C@@H]([C])C(=O)[N][C@@H]([C]([C])[C])C(=O)[N][C@@H]([C][C][C][C][N])C(=O)[N][C@@H]([C][C][C][C][N])C(=O)[N][C@@H]([C]c1ccc([O])cc1)C(=O)[N][C@@H]([C][C]([C])[C])C(=O)[N][C@@H]([C])C(=O)[N][C@@H]([C])C(=O)[N][C@@H]([C]([C])[C])C(=O)[N][C@@H]([C][C]([C])[C])C([N])=O)[C@@H]([C])[O] [PACAP(2-27)] | 7.52 |
| CCC(C)[C@H](NC(=O)CN)C(=O)N[C@@H](Cc1ccccc1)C(=O)N[C@H](C(=O)N[C@@H](CC(=O)O)C(=O)N[C@@H](CO)C(=O)N[C@@H](Cc1ccc(O)cc1)C(=O)N[C@@H](CO)C(=O)N[C@@H](CCCN=C(N)N)C(=O)N[C@@H](Cc1ccc(O)cc1)C(=O)N[C@@H](CCCN=C(N)N)C(=O)N[C@@H](CCCCN)C(=O)N[C@@H](CCC(N)=O)C(=O)N[C@@H](CCSC)C(=O)N[C@@H](C)C(=O)N[C@H](C(=O)N[C@@H](CCCCN)C(=O)N[C@@H](CCCCN)C(=O)N[C@@H](Cc1ccc(O)cc1)C(=O)N[C@@H](CC(C)C)C(=O)N[C@@H](C)C(=O)N[C@@H](C)C(=O)N[C@H](C(=O)N[C@@H](CC(C)C)C(=O)NCC(=O)N[C@@H](CCCCN)C(=O)N[C@@H](CCCN=C(N)N)C(=O)N[C@@H](Cc1ccc(O)cc1)C(=O)N[C@@H](CCCCN)C(=O)N[C@@H](CCC(N)=O)C(=O)N[C@@H](CCCN=C(N)N)C(=O)N[C@H](C(=O)N[C@@H](CCCCN)C(=O)N[C@@H](CC(N)=O)C(=O)N[C@@H](CCCCN)C(N)=O)C(C)C)C(C)C)C(C)C)[C@@H](C)O (some centres undefined) [PACAP(4-38)] (H-G[Ile(3ξ)]FTDSYSRYRKQMAVKKYLAAVLGKRYKQRVKNK-NH2) | 7.70 |
| CCC(C)[C@H](N)C(=O)N[C@@H](Cc1ccccc1)C(=O)N[C@H](C(=O)N[C@@H](CC(=O)O)C(=O)N[C@@H](CO)C(=O)N[C@@H](Cc1ccc(O)cc1)C(=O)N[C@@H](CO)C(=O)N[C@@H](CCCN=C(N)N)C(=O)N[C@@H](Cc1ccc(O)cc1)C(=O)N[C@@H](CCCN=C(N)N)C(=O)N[C@@H](CCCCN)C(=O)N[C@@H](CCC(N)=O)C(=O)N[C@@H](CCSC)C(=O)N[C@@H](C)C(=O)N[C@H](C(=O)N[C@@H](CCCCN)C(=O)N[C@@H](CCCCN)C(=O)N[C@@H](Cc1ccc(O)cc1)C(=O)N[C@@H](CC(C)C)C(=O)N[C@@H](C)C(=O)N[C@@H](C)C(=O)N[C@H](C(=O)N[C@@H](CC(C)C)C(N)=O)C(C)C)C(C)C)[C@@H](C)O (some centres undefined) [PACAP(5-27)] (H-[Ile(3ξ)]FTDSYSRYRKQMAVKKYLAAVL-NH2) | 6.00 |

More lines, now with the values ahead:

| pKi | Structure (SMILES) |
| --- | --- |
| 8.52 | CCC(C)[C@H](NC(=O)CNC(=O)[C@H](CC(=O)O)NC(=O)[C@@H](N)CO)C(=O)N[C@@H](Cc1ccccc1)C(=O)N[C@H](C(=O)N[C@@H](CC(=O)O)C(=O)N[C@@H](CO)C(=O)N[C@@H](Cc1ccc(O)cc1)C(=O)N[C@@H](CO)C(=O)N[C@@H](CCCN=C(N)N)C(=O)N[C@@H](Cc1ccc(O)cc1)C(=O)N[C@@H](CCCN=C(N)N)C(=O)N[C@@H](CCCCN)C(=O)N[C@@H](CCC(N)=O)C(=O)N[C@@H](CCSC)C(=O)N[C@@H](C)C(=O)N[C@H](C(=O)N[C@@H](CCCCN)C(=O)N[C@@H](CCCCN)C(=O)N[C@@H](Cc1ccc(O)cc1)C(=O)N[C@@H](CC(C)C)C(=O)N[C@@H](C)C(=O)N[C@@H](C)C(=O)N[C@H](C(=O)N[C@@H](CC(C)C)C(=O)NCC(=O)N[C@@H](CCCCN)C(=O)N[C@@H](CCCN=C(N)N)C(=O)N[C@@H](Cc1ccc(O)cc1)C(=O)N[C@@H](CCCCN)C(=O)N[C@@H](CCC(N)=O)C(=O)N[C@@H](CCCN=C(N)N)C(=O)N[C@H](C(=O)N[C@@H](CCCCN)C(=O)N[C@@H](CC(N)=O)C(=O)N[C@@H](CCCCN)C(N)=O)C(C)C)C(C)C)C(C)C)[C@@H](C)O (some centres undefined) [PACAP(2-38)] (H-SDG[Ile(3ξ)]FTDSYSRYRKQMAVKKYLAAVLGKRYKQRVKNK-NH2) |
| 5.52 | CCC(C)[C@H](NC(=O)CNC(=O)[C@@H](N)CC(=O)O)C(=O)N[C@@H](Cc1ccccc1)C(=O)N[C@H](C(=O)N[C@@H](CC(=O)O)C(=O)N[C@@H](CO)C(=O)N[C@@H](Cc1ccc(O)cc1)C(=O)N[C@@H](CO)C(=O)N[C@@H](CCCN=C(N)N)C(=O)N[C@@H](Cc1ccc(O)cc1)C(=O)N[C@@H](CCCN=C(N)N)C(=O)N[C@@H](CCCCN)C(=O)N[C@@H](CCC(N)=O)C(=O)N[C@@H](CCSC)C(=O)N[C@@H](C)C(=O)N[C@H](C(=O)N[C@@H](CCCCN)C(=O)N[C@@H](CCCCN)C(=O)N[C@@H](Cc1ccc(O)cc1)C(=O)N[C@@H](CC(C)C)C(=O)N[C@@H](C)C(=O)N[C@@H](C)C(=O)N[C@H](C(=O)N[C@@H](CC(C)C)C(N)=O)C(C)C)C(C)C)[C@@H](C)O (some centres undefined) [PACAP(3-27)] (H-DG[Ile(3ξ)]FTDSYSRYRKQMAVKKYLAAVL-NH2) |
| 8.00 | CCC(C)[C@H](NC(=O)CNC(=O)[C@@H](N)CC(=O)O)C(=O)N[C@@H](Cc1ccccc1)C(=O)N[C@H](C(=O)N[C@@H](CC(=O)O)C(=O)N[C@@H](CO)C(=O)N[C@@H](Cc1ccc(O)cc1)C(=O)N[C@@H](CO)C(=O)N[C@@H](CCCN=C(N)N)C(=O)N[C@@H](Cc1ccc(O)cc1)C(=O)N[C@@H](CCCN=C(N)N)C(=O)N[C@@H](CCCCN)C(=O)N[C@@H](CCC(N)=O)C(=O)N[C@@H](CCSC)C(=O)N[C@@H](C)C(=O)N[C@H](C(=O)N[C@@H](CCCCN)C(=O)N[C@@H](CCCCN)C(=O)N[C@@H](Cc1ccc(O)cc1)C(=O)N[C@@H](CC(C)C)C(=O)N[C@@H](C)C(=O)N[C@@H](C)C(=O)N[C@H](C(=O)N[C@@H](CC(C)C)C(=O)NCC(=O)N[C@@H](CCCCN)C(=O)N[C@@H](CCCN=C(N)N)C(=O)N[C@@H](Cc1ccc(O)cc1)C(=O)N[C@@H](CCCCN)C(=O)N[C@@H](CCC(N)=O)C(=O)N[C@@H](CCCN=C(N)N)C(=O)N[C@H](C(=O)N[C@@H](CCCCN)C(=O)N[C@@H](CC(N)=O)C(=O)N[C@@H](CCCCN)C(N)=O)C(C)C)C(C)C)C(C)C)[C@@H](C)O (some centres undefined) [PACAP(3-38)] (H-DG[Ile(3ξ)]FTDSYSRYRKQMAVKKYLAAVLGKRYKQRVKNK-NH2) |
| 8.05 | CCC(C)[C@H](N)C(=O)N[C@@H](Cc1ccccc1)C(=O)N[C@H](C(=O)N[C@@H](CC(=O)O)C(=O)N[C@@H](CO)C(=O)N[C@@H](Cc1ccc(O)cc1)C(=O)N[C@@H](CO)C(=O)N[C@@H](CCCN=C(N)N)C(=O)N[C@@H](Cc1ccc(O)cc1)C(=O)N[C@@H](CCCN=C(N)N)C(=O)N[C@@H](CCCCN)C(=O)N[C@@H](CCC(N)=O)C(=O)N[C@@H](CCSC)C(=O)N[C@@H](C)C(=O)N[C@H](C(=O)N[C@@H](CCCCN)C(=O)N[C@@H](CCCCN)C(=O)N[C@@H](Cc1ccc(O)cc1)C(=O)N[C@@H](CC(C)C)C(=O)N[C@@H](C)C(=O)N[C@@H](C)C(=O)N[C@H](C(=O)N[C@@H](CC(C)C)C(=O)NCC(=O)N[C@@H](CCCCN)C(=O)N[C@@H](CCCN=C(N)N)C(=O)N[C@@H](Cc1ccc(O)cc1)C(=O)N[C@@H](CCCCN)C(=O)N[C@@H](CCC(N)=O)C(=O)N[C@@H](CCCN=C(N)N)C(=O)N[C@H](C(=O)N[C@@H](CCCCN)C(=O)N[C@@H](CC(N)=O)C(=O)N[C@@H](CCCCN)C(N)=O)C(C)C)C(C)C)C(C)C)[C@@H](C)O (some centres undefined) [PACAP(5-38)] (H-[Ile(3ξ)]FTDSYSRYRKQMAVKKYLAAVLGKRYKQRVKNK-NH2) |
